Source: US8906430B2, “Use of hypericum perforatum extracts in the treatment of neuropathic pain” (Aboca S.p.A. Societa' Agricola, priority 2008, dated 2014)

Key:
[1] = tested on: neuropathic pain; test: Experimental models of neuropathic pain (summary statements); type: in vivo, rodents; conditions: for Ability to reduce neuropathic pain: isolated phloroglucinol derivatives
Procedure: The studies were conducted on rodents, which have always constituted a good animal model to reproduce the characteristics of human pain symptoms and predict possible remedies.

[2] = tested on: mononeuropathy induced by ligature of the sciatic nerve; test: Right-side mononeuropathy induced by ligature of the sciatic nerve, rat paw pressure test; type: in vivo; set-up: unit not given beside the values; conditions: 0.11 mg/kg p.o.
Procedure: Neuropathic pain is characterised by the development of an altered perception of pain, which is manifested as continuous spontaneous pain and hyperalgesia. In this model, the rats were anaesthetised with chloral hydrate 400 mg/kg i.p. or sodium pentobarbital 40 mg/kg i.p. The sciatic nerve was then exposed at thigh level by retracting the femoral biceps. Proximally to the trifurcation of the sciatic nerve, approx. 7 mm of nerve was released from the membranes and 4 loose ligatures were tied round the nerve, approx. 1 mm apart. In another group of animals an identical incision was made, but without the nerve ligature (sham operation). Neuropathy developed in 14 days. The tests with the potentially analgesic substances were performed on the 14th and 21st days after the operation using the paw pressure test (ref. 24).
Using the same method as in Example 2, the following results were obtained by administering hypericin at the doses indicated in Table 6.

[3] = tested on: monosodium iodoacetate-induced osteoarthritis pain; test: Pain caused by monosodium iodoacetate-induced osteoarthritis of the knee, rat paw pressure test; type: in vivo; conditions: MIA, 0.11 mg/kg p.o.
Description: The reduction in the pain threshold was induced by a single administration of monoiodoacetate (MIA) into the […] of the rat (Ref. 27). [table]

[4] = tested on: oxaliplatin-induced hyperalgesia; test: Oxaliplatin-induced hyperalgesia, rat paw pressure test; type: in vivo; conditions: oxaliplatin i.p., hypericin 0.11 mg/kg + CMC p.o., single administration
Procedure: A reduction in the pain threshold was induced by administering oxaliplatin 2.4 mg/kg for 5 consecutive days for a total of 3 weeks. By the end of the treatment period, the pain perception threshold of the rats was statistically lower than that of the controls (Ref. 23). Using the same method as in Example 1, the following results were obtained by administering hypericin at the doses indicated in Table 5.

For `CCC(C)C(=O)[C@@]12C(=O)C(CC=C(C)C)=C(O)[C@@](CC=C(C)C)(C[C@H](CC=C(C)C)[C@@]1(C)CCC=C(C)C)C2=O` (stereo partly drawn) [adihyperforin], the “Ability to reduce neuropathic pain” value [1] was “unable to reduce neuropathic pain”.
With `Cc1cc(O)c2c(=O)c3c(O)cc(O)c4c5c(O)cc(O)c6c(=O)c7c(O)cc(C)c8c1c2c(c34)c(c78)c65` [HYPERICIN, hypericin] the “Rat paw pressure test (Paw)” value ([2]; paw L, 4 min after treatment) was 24.8 ± 3.9, the “Rat paw pressure test (Paw)” value ([2]; paw L, 15 min after treatment) was 23.8 ± 3.3 and the “Rat paw pressure test (Paw)” value ([2]; paw L, 30 min after treatment) was 22.7 ± 2.1. The “Rat paw pressure test (Paw)” value ([2]; paw L, 60 min after treatment) was 21.5 ± 3.0, the “Rat paw pressure test (Paw)” value ([2]; paw L, before treatment) was 21.6 ± 2.7 and the “Rat paw pressure test (Paw)” value ([2]; paw R, 4 min after treatment) was 41.6 ± 2.7. For the same compound, the “Rat paw pressure test (Paw)” value ([2]; paw R, 15 min after treatment) was 28.1 ± 1.2, the “Rat paw pressure test (Paw)” value ([2]; paw R, 30 min after treatment) was 43.7 ± 2.0 and the “Rat paw pressure test (Paw)” value ([2]; paw R, 60 min after treatment) was 25.9 ± 2.2. The “Rat paw pressure test (Paw)” value ([2]; paw R, before treatment) was 24.3 ± 4.6, the “Rat paw pressure test” value ([3]; 15 min after treatment) was 45.9 ± 2.7 and the “Rat paw pressure test” value ([3]; 30 min after treatment) was 49.7 ± 3.8. For the same compound, the “Rat paw pressure test” value ([3]; 45 min after treatment) was 42.8 ± 3.9, the “Rat paw pressure test” value ([3]; 60 min after treatment) was 31.7 ± 3.5 and the “Rat paw pressure test” value ([3]; Pre-test) was 23.4 ± 3.3. The “Activity on neuropathic pain” value ([1]; at a dose corresponding to its concentration in freeze-dried extracts) was “active”, the “Pressure on rats' paws” value ([4]; 3rd week + 15 min) was 44.1 ± 2.8 g and the “Pressure on rats' paws” value ([4]; 3rd week + 30 min) was 55.0 ± 2.2 g. For the same compound, the “Pressure on rats' paws” value ([4]; 3rd week + 45 min) was 53.3 ± 2.6 g, the “Pressure on rats' paws” value ([4]; 3rd week + 60 min) was 31.3 ± 3.0 g and the “Pressure on rats' paws” value ([4]; 3rd week Pre-test) was 32.4 ± 2.0 g. The “Pressure on rats' paws” value ([4]; Pre-test before all treatments) was 63.2 ± 3.5 g.
`CC(C)=CCC[C@]1(C)[C@@H](CC=C(C)C)C[C@@]2(CC=C(C)C)C(=O)[C@]1(C(=O)C(C)C)C(=O)C(CC=C(C)C)=C2O` [hyperforin] was tested, and the “Ability to reduce neuropathic pain” value [1] was “unable to reduce neuropathic pain”.
